Where only a bound is given, the exact number is not on record here.

Results on one compound are retold here after EPA's ToxRefDB 2.

The test system of series [1] is rat. The following applies: Sub-acute repeat dose toxicity; wistar; Oral; Gavage/Intubation; dose end: 7 day; group: systemic; systemic / clinical chemistry / [other] / [other] + systemic / pathology microscopic / blood / vasculitis.
Series [2] deals with rabbit. The conditions noted are these: Prenatal developmental toxicity study; Oral; Gavage/Intubation; dose end: 19 GD; group: maternal; systemic / in life observation / clinical signs / abnormal feces + systemic / in life observation / clinical signs / red or crusty deposits ….
For series [3], the system named is primate. The following applies: Subchronic oral toxicity in nonrodent, Gavage/Intubation, dose end: 91 day, group: systemic, systemic / in life observation / body weight / body weight + systemic / in life observation / clinical signs / [other] + systemic / in life ….
The subject of series [4] is rat. The following applies: Fertility (Segment I), Oral, Gavage/Intubation, dose end: 1 generation, group: parental.
Series [5] has as its system rat. The conditions noted are these: Sub-acute repeat dose toxicity; Oral; Gavage/Intubation; dose end: 14 day; group: systemic; systemic / in life observation / clinical signs / ataxia + systemic / in life observation / clinical signs / urine staining - perineum + ….
[6] abbreviates: systemic / in life observation / clinical signs / abnormal feces + systemic / in life observation / clinical signs / convulsions + systemic….
The mark [7] stands for this setting: systemic / in life observation / clinical signs / convulsions + systemic / in life observation / clinical signs / salivation.

In general, LOAEL refers to the lowest dose or exposure tested at which an adverse effect was seen. As usually defined, the NOAEL is the highest tested level that showed no adverse finding. On to `Cc1cc2c3c(c1)C(c1ccccc1)=N[C@@H](NC(=O)c1ccncc1)C(=O)N3CC2` [CI-1018], for which the LEL in series [1] was found to be 375 mg/kg/day; in series [3], 740 mg/kg/day; in series [4] (setting [7]), 30 mg/kg/day; in series [5], 1000 mg/kg/day. Further, the lowest-observed-adverse-effect level (LOAEL) was greater than 750 mg/kg/day in series [1]; greater than 100 mg/kg/day in series [2]; greater than 740 mg/kg/day in series [3]; greater than 300 mg/kg/day in series [4] (setting [6]); greater than 1000 mg/kg/day in series [5]. Further, the NEL was 75 mg/kg/day in series [1]; 10 mg/kg/day in series [2]; less than 740 mg/kg/day in series [3]; less than 30 mg/kg/day in series [4] (setting [7]); 300 mg/kg/day in series [5]. In addition, the NOAEL in series [1] was no less than 750 mg/kg/day; in series [2] it was no less than 100 mg/kg/day; in series [3], no less than 740 mg/kg/day; in series [4] (setting [6]), no less than 300 mg/kg/day; in series [5], no less than 1000 mg/kg/day.
